From patent US20260325533A1, “CDK INHIBITOR COMPOUNDS” (ALEKSIA THERAPEUTICS, INC., priority 2023, published 2026)
pIC50: −log10 of the molar value. Read-outs that look alike come from different tables or passages of the source. Values belong to the compound of their own block, whether it stands above or below them.

How the values were obtained:
Format in all cases: biochemical
CDK2/CCNE1 = CDK2/CCNE1 (Homo sapiens, UniProt P24941); test: CDK2 homogeneous time-resolved fluorescence (HTRF) kinase assay
In short: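 IC50 derived from 11-point, half-log dilutions (usually top 10 μM) of compound, 1% DMSO. Kinase (3 nM CDK2/CCNE1) was preincubated with compound 20 min, then phosphorylated 50 nM ULight-4E-BP1 peptide at 1 mM ATP for 60 min, 23 °C. Europium-antibody TR-FRET read after EDTA stop.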

CDK1/CCNB1 = CDK1/CCNB1 (Homo sapiens, UniProt P06493); test: CDK1 homogeneous time-resolved fluorescence (HTRF) kinase assay
In short: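 Compounds, titrated 11 points in half-log steps typically from 10 μM, were incubated with enzyme for 20 min before ATP (1 mM) and ULight-labelled eIF4E-binding protein 1 peptide (50 nM) started a 60-min reaction at 23 °C. Phosphopeptide was detected by europium-antibody TR-FRET and IC50 values were derived.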

CDK4/CCND3 = CDK4/CCND3 (Homo sapiens, UniProt P11802); test: CDK4 homogeneous time-resolved fluorescence (HTRF) kinase assay
In short: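 IC50s derive from Lance 665 nm or 665/615 nm signals in 11-point, half-log dose series (top 10 μM, 1% DMSO). The enzyme, 1.5 nM CDK4/CCND3, phosphorylates 50 nM ULight-4E-BP1 peptide with 1 mM ATP over 60 min at 23 °C.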

CDK6/CCND1 = CDK6/CCND1 (Homo sapiens, UniProt Q00534); test: CDK6 homogeneous time-resolved fluorescence (HTRF) kinase assay
In short: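 Assay conditions: HEPES buffer containing 10 mM MgCl2, 1 mM EGTA, 2 mM DTT, 0.01% Tween 20; 1 nM CDK6/CCND1, 50 nM peptide substrate, 1 mM ATP. Detection after 60 min reaction used 2 nM europium antibody with 340 nm excitation. Potency fitted from half-log series, 11 points.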

[1] = CDK6/CCND, <25 nM, read-out: CDK6/CCND IC50 <25 nM
[2] = CDK2/CCNE, x = IC50 25-250 nM, read-out: CDK2/CCNE IC50 (25-250 nM)
[3] = CDK1/CCNB, x = IC50 >250 nM, read-out: CDK1/CCNB IC50 (>250 nM column)
[4] = CDK4/CCND, x = IC50 >250 nM, read-out: CDK4/CCND IC50 (>250 nM column)
[5] = CDK6/CCND, x = IC50 >250 nM, read-out: CDK6/CCND IC50 (>250 nM column)

Chain of CDK4/CCND3 (P11802 whole entry): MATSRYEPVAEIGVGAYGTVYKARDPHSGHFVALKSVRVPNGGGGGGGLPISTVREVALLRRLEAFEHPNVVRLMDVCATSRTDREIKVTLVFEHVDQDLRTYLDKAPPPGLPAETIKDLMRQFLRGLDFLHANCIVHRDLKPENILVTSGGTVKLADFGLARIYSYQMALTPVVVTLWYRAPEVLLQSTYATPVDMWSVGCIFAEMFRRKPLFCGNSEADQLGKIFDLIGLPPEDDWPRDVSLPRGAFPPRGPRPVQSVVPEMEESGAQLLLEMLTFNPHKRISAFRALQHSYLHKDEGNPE
Chain of CDK4/CCND3 (P30281 whole entry partner): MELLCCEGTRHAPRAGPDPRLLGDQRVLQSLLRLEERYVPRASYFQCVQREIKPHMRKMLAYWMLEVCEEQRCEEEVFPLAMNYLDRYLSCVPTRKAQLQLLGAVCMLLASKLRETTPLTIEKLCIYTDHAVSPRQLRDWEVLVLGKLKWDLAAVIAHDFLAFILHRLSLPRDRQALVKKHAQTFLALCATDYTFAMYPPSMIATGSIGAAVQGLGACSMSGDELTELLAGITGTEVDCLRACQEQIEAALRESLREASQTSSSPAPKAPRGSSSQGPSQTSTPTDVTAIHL
Chain of CDK6/CCND1 (Q00534 whole entry): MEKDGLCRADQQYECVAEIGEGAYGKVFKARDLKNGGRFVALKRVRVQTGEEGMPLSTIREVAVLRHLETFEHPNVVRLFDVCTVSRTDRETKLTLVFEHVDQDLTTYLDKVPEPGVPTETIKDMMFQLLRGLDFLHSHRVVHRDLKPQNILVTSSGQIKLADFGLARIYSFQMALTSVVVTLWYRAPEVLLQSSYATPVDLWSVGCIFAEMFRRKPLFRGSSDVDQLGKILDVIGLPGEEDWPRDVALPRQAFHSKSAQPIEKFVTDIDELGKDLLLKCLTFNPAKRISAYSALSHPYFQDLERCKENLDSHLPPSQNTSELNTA
Chain of CDK6/CCND1 (P24385 whole entry partner): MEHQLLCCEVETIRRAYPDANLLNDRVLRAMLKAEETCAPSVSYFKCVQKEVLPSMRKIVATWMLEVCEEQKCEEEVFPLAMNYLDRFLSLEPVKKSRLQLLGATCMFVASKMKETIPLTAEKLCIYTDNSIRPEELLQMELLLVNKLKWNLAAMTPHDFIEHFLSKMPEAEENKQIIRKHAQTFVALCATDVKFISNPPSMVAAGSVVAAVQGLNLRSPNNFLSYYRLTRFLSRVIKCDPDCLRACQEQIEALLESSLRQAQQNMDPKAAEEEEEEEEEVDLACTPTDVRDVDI
Chain of CDK1/CCNB1 (P06493 whole entry): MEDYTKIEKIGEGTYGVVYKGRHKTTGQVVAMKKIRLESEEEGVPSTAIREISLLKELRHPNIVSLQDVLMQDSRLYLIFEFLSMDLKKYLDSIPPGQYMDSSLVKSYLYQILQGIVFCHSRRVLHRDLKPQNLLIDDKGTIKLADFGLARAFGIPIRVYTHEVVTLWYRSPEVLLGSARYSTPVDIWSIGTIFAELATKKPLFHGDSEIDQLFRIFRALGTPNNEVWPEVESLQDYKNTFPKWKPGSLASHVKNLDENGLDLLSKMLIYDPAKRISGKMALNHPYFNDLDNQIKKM
Chain of CDK1/CCNB1 (P14635 whole entry partner): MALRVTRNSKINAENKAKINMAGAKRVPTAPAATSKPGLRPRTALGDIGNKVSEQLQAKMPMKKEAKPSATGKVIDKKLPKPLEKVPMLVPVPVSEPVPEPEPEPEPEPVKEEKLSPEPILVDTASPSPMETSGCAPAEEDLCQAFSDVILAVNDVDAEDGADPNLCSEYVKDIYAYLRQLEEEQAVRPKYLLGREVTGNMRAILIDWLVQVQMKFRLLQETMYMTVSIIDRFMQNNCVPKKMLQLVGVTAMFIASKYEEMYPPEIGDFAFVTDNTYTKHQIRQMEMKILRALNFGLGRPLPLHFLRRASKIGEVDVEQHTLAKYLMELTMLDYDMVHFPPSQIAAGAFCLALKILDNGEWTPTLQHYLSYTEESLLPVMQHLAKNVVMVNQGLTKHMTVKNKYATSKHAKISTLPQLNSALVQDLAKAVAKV

SMILES: Cc1c(-c2nccc3cnc(NC4CCN(S(C)(=O)=O)CC4)cc23)ccc2[nH]ncc12 [Ex 116, 5-(4-methyl-1H-indazol-5-yl)-N-(1-(methylsulfonyl)piperidin-4-yl)-2,6-naphthyridin-3-amine]
pIC50 (CDK2/CCNE1; CDK2/CCNE, <25 nM, read-out: CDK2/CCNE IC50 <25 nM): > 7.60 | pIC50 (CDK1/CCNB1; CDK1/CCNB, 25-250 nM marked x, read-out: CDK1/CCNB IC50 25-250 nM): 6.60 to 7.60 | pIC50 (CDK4/CCND3; CDK4/CCND, <25 nM, read-out: CDK4/CCND IC50 <25 nM): > 7.60 | pIC50 (CDK6/CCND1; [1]): > 7.60

SMILES: CCC1(CC)C(=O)Nc2cc(C#Cc3nccc4cnc(Nc5ccc(S(C)(=N)=O)cc5)cc34)ccc21 (single isomer, unassigned) [Ex 426, 3,3-diethyl-6-((7-((4-(S-methylsulfonimidoyl)phenyl)amino)-2,6-naphthyridin-1-yl)ethynyl)indolin-2-one]
pIC50 (CDK2/CCNE1; CDK2/CCNE, x = IC50 <25 nM, read-out: CDK2/CCNE IC50 (<25 nM)): > 7.60 | pIC50 (CDK1/CCNB1; CDK1/CCNB, x = IC50 25-250 nM, read-out: CDK1/CCNB IC50 (25-250 nM)): 6.60 to 7.60 | pIC50 (CDK4/CCND3; [4]): < 6.60 | pIC50 (CDK6/CCND1; [5]): < 6.60

SMILES: Cc1ccc(C#Cc2nccc3cnc(Nc4ccc(S(C)(=O)=O)cc4)cc23)c(N)n1 [Ex 581, 5-((2-amino-6-methylpyridin-3-yl)ethynyl)-N-(4-(methylsulfonyl)phenyl)-2,6-naphthyridin-3-amine]
pIC50 (CDK2/CCNE1; [2]): 6.60 to 7.60 | pIC50 (CDK1/CCNB1; [3]): < 6.60 | pIC50 (CDK4/CCND3; [4]): < 6.60 | pIC50 (CDK6/CCND1; [5]): < 6.60

SMILES: Cc1c(-c2nccc3cnc(NC4CCN(C(=O)c5cccnc5)C4)cc23)ccc2c1cnn2CC(C)(C)O (racemic) [Ex 904, (3-((5-(1-(2-hydroxy-2-methylpropyl)-4-methyl-1H-indazol-5-yl)-2,6-naphthyridin-3-yl)amino)pyrrolidin-1-yl)(pyridin-3-yl)methanone]
pIC50 (CDK2/CCNE1; 25-250 nM, CDK2/CCNE, read-out: CDK2/CCNE IC50, 25-250 nM): 6.60 to 7.60 | pIC50 (CDK1/CCNB1; >250 nM, CDK1/CCNB, read-out: CDK1/CCNB IC50 >250 nM): < 6.60 | pIC50 (CDK4/CCND3; >250 nM, CDK4/CCND, read-out: CDK4/CCND IC50, >250 nM): < 6.60 | pIC50 (CDK6/CCND1; >250 nM, CDK6/CCND, 1 mM ATP, read-out: CDK6/CCND IC50, >250 nM): < 6.60

Second part, the compound after the results:

pIC50 (CDK2/CCNE1; [2]): 6.60 to 7.60 | pIC50 (CDK1/CCNB1; [3]): < 6.60 | pIC50 (CDK4/CCND3; [4]): < 6.60 | pIC50 (CDK6/CCND1; [5]): < 6.60
SMILES: CC(Cn1ncc2c(C)c(-c3nccc4cnc(Nc5ccc(S(C)(=O)=O)cc5)cc34)ccc21)=NO [Example 592, 1-(4-methyl-5-(7-((4-(methylsulfonyl)phenyl)amino)-2,6-naphthyridin-1-yl)-1H-indazol-1-yl)propan-2-one oxime]

pIC50 (CDK2/CCNE1; CDK2/CCNE, 25-250 nM marked x, read-out: CDK2/CCNE IC50 25-250 nM): 6.60 to 7.60 | pIC50 (CDK1/CCNB1; CDK1/CCNB, >250 nM marked x, read-out: CDK1/CCNB IC50 >250 nM): < 6.60 | pIC50 (CDK4/CCND3; CDK4/CCND, 25-250 nM marked x, read-out: CDK4/CCND IC50 25-250 nM): 6.60 to 7.60 | pIC50 (CDK6/CCND1; [1]): > 7.60
SMILES: CS(=O)(=O)N1CCC(Nc2cc3c(N4CCCC4)nccc3cn2)CC1 [Example 2, N-(1-(methylsulfonyl)piperidin-4-yl)-5-(pyrrolidin-1-yl)-2,6-naphthyridin-3-amine]

pIC50 (CDK2/CCNE1; 3 nM CDK2/CCNE1, 1 mM ATP, read-out: CDK2/CCNE IC50 25-250 nM): 6.60 to 7.60 | pIC50 (CDK1/CCNB1; 0.5 nM CDK1/CCNB1, 1 mM ATP, read-out: CDK1/CCNB IC50 >250 nM): < 6.60 | pIC50 (CDK4/CCND3; 1.5 nM CDK4/CCND3, 1 mM ATP, read-out: CDK4/CCND IC50 25-250 nM): 6.60 to 7.60 | pIC50 (CDK6/CCND1; 1 nM CDK6/CCND1, 1 mM ATP, read-out: CDK6/CCND IC50 25-250 nM): 6.60 to 7.60
SMILES: CS(=O)(=O)c1ccc(Nc2cc3c(C#Cc4ccc5c(c4)CCNC5)c(C#N)ccc3cn2)cc1 [Example 947, 3-((4-(methylsulfonyl)phenyl)amino)-5-((1,2,3,4-tetrahydroisoquinolin-6-yl)ethynyl)isoquinoline-6-carbonitrile]

pIC50 (CDK2/CCNE1; <25 nM, CDK2/CCNE, read-out: CDK2/CCNE IC50, <25 nM): > 7.60 | pIC50 (CDK1/CCNB1; 25-250 nM, CDK1/CCNB, read-out: CDK1/CCNB IC50, 25-250 nM): 6.60 to 7.60 | pIC50 (CDK4/CCND3; 25-250 nM, CDK4/CCND, read-out: CDK4/CCND IC50, 25-250 nM): 6.60 to 7.60 | pIC50 (CDK6/CCND1; 25-250 nM, CDK6/CCND, 1 mM ATP, read-out: CDK6/CCND IC50, 25-250 nM): 6.60 to 7.60
SMILES: Cc1c(-c2nccc3cnc(Nc4ccc(-n5ccnc5)cc4)cc23)ccc2c1cnn2CC(C)(C)O [Ex 928, 1-(5-(7-((4-(1H-imidazol-1-yl)phenyl)amino)-2,6-naphthyridin-1-yl)-4-methyl-1H-indazol-1-yl)-2-methylpropan-2-ol]
